≈ marks a conversion by molar mass, not a printed value.
How the values were obtained:
Assay type in all cases: functional
[1] = tested on: Mycobacterium tuberculosis; experiment: Antimycobacterial activity against Mycobacterium tuberculosis harboring luxABCDE under hypoxic condition after 10 days by MABA assay in presence of 10% fetal bovine serum; details: 240 h
[2] = tested on: Mycobacterium tuberculosis; experiment: Antimycobacterial activity against Mycobacterium tuberculosis harboring luxABCDE under hypoxic condition after 10 days by MABA assay in presence of 4% bovine serum albumin; details: 240 h
[3] = tested on: Mycobacterium tuberculosis; experiment: Ratio of MIC for Mycobacterium tuberculosis harboring luxABCDE under hypoxic condition in presence of 10% fetal bovine serum to MIC for Mycobacterium tuberculosis harboring luxABCDE under hypoxic condition in absence of 10% fetal bovine serum by MABA assay
[4] = tested on: Mycobacterium tuberculosis; experiment: Antimycobacterial activity against moxifloxacin-resistant Mycobacterium tuberculosis under normoxic condition after 7 days by MABA assay; details: 168 h
[5] = tested on: Mycobacterium tuberculosis; experiment: Ratio of MIC for Mycobacterium tuberculosis harboring luxABCDE under hypoxic condition in presence of 4% bovine serum albumin to MIC for Mycobacterium tuberculosis harboring luxABCDE under hypoxic condition in absence of 4% bovine serum albumin by MABA assay
[6] = tested on: Mycobacterium tuberculosis; experiment: Antimycobacterial activity against cycloserine-resistant Mycobacterium tuberculosis ATCC 35826 under normoxic condition after 7 days by MABA assay; details: ATCC 35826, 168 h
[7] = tested on: Mycobacterium tuberculosis; experiment: Antimycobacterial activity against capreomycin-resistant Mycobacterium tuberculosis under normoxic condition after 7 days by MABA assay; details: 168 h
[8] = tested on: Mycobacterium tuberculosis; experiment: Antimycobacterial activity against kanamycin-resistant Mycobacterium tuberculosis ATCC 35827 under normoxic condition after 7 days by MABA assay; details: ATCC 35827, 168 h
[9] = tested on: Mycobacterium tuberculosis; experiment: Antimycobacterial activity against isoniazid-resistant Mycobacterium tuberculosis ATCC 35822 under normoxic condition after 7 days by MABA assay; details: ATCC 35822, 168 h
[10] = tested on: Mycobacterium tuberculosis; experiment: Antimycobacterial activity against streptomycin-resistant Mycobacterium tuberculosis ATCC 35820 under normoxic condition after 7 days by MABA assay; details: ATCC 35820, 168 h
[11] = tested on: Mycobacterium tuberculosis; experiment: Antimycobacterial activity against rifampin-resistant Mycobacterium tuberculosis ATCC 35838 under normoxic condition after 7 days by MABA assay; details: ATCC 35838, 168 h
[12] = tested on: Mycobacterium tuberculosis; experiment: Antimycobacterial activity against Mycobacterium tuberculosis harboring luxABCDE under hypoxic condition after 10 days by MABA assay; details: for MIC90: Mycobacterium tuberculosis, 240 h

Structure (SMILES)	MIC90 [1]	MIC90 [2]	Ratio [3]	MIC90 [4]	Ratio [5]	MIC90 [6]	MIC90 [7]	MIC90 [8]	MIC90 [9]	MIC90 [10]	MIC90 [11]	MBC90 [12]	MIC90 [12]
CC(C)C[C@@H]1NC(=O)[C@H]2CCCNN2C(=O)[C@H](C)N(C)C(=O)[C@H]2CCCNN2C(=O)[C@@H]2CCCNN2C(=O)[C@@H](C(C)C)NC1=O	20.9 µg/mL	19.1 µg/mL	10	9 µg/mL (≈ 14.2 µM)	10	20.6 µg/mL (≈ 32.5 µM)	12.1 µg/mL (≈ 19.1 µM)	12.4 µg/mL (≈ 19.6 µM)	12.1 µg/mL (≈ 19.1 µM)	11.6 µg/mL (≈ 18.3 µM)	9.6 µg/mL (≈ 15.1 µM)	19.5 µg/mL (≈ 30.8 µM)	2.4 µg/mL (≈ 3.79 µM)
Cc1ncc([N+](=O)[O-])n1CCO [METRONIDAZOLE]	5.3 µg/mL	13.5 µg/mL		> 87.6 µg/mL		> 87.6 µg/mL	> 87.6 µg/mL	> 87.6 µg/mL	> 87.6 µg/mL	> 87.6 µg/mL	> 87.6 µg/mL		> 87.6 µg/mL
CN[C@@H]1[C@H](O[C@H]2[C@H](O[C@H]3[C@H](O)[C@@H](O)[C@H](N=C(N)N)[C@@H](O)[C@@H]3N=C(N)N)O[C@@H](C)[C@]2(O)C=O)O[C@@H](CO)[C@H](O)[C@H]1O [STREPTOMYCIN]	0.6 µg/mL	0.4 µg/mL		0.5 µg/mL (≈ 0.86 µM)		0.4 µg/mL (≈ 0.688 µM)	1.1 µg/mL (≈ 1.89 µM)	1.1 µg/mL (≈ 1.89 µM)	0.1 µg/mL (≈ 0.172 µM)	> 9.3 µg/mL	0.1 µg/mL (≈ 0.172 µM)		0.6 µg/mL (≈ 1.03 µM)
CO[C@H]1/C=C/O[C@@]2(C)Oc3c(C)c(O)c4c(O)c(c(/C=N/N5CCN(C)CC5)c(O)c4c3C2=O)NC(=O)/C(C)=C\C=C\[C@H](C)[C@H](O)[C@@H](C)[C@@H](O)[C@@H](C)[C@H](OC(C)=O)[C@@H]1C [RIFAMPIN]	0.1 µg/mL	0.2 µg/mL		0.1 µg/mL (≈ 0.122 µM)		< 0.01 µg/mL	0.04 µg/mL (≈ 0.0486 µM)	< 0.01 µg/mL	0.01 µg/mL (≈ 0.0122 µM)	< 0.01 µg/mL	> 3.3 µg/mL	0.5 µg/mL (≈ 0.608 µM)	< 0.1 µg/mL
CC[C@H](C)[C@H]1NC(=O)[C@H](CC(C)C)NC(=O)[C@H]2CCCNN2C(=O)[C@H](C)N(C)C(=O)[C@H]2CCCNN2C(=O)[C@@H]2CCCNN2C1=O	9.9 µg/mL	10.8 µg/mL	10	4 µg/mL (≈ 6.17 µM)	10	7.4 µg/mL (≈ 11.4 µM)	4.8 µg/mL (≈ 7.41 µM)	4.9 µg/mL (≈ 7.56 µM)	4.7 µg/mL (≈ 7.26 µM)	4.7 µg/mL (≈ 7.26 µM)	4.7 µg/mL (≈ 7.26 µM)	10.5 µg/mL (≈ 16.2 µM)	1.5 µg/mL (≈ 2.32 µM)
NNC(=O)c1ccncc1 [ISONIAZID]	> 140 µg/mL	> 140 µg/mL		0.1 µg/mL (≈ 0.729 µM)		0.03 µg/mL (≈ 0.219 µM)	0.1 µg/mL (≈ 0.729 µM)	0.1 µg/mL (≈ 0.729 µM)	> 1.1 µg/mL	0.03 µg/mL (≈ 0.219 µM)	0.1 µg/mL (≈ 0.729 µM)		> 140 µg/mL

— ChEMBL document CHEMBL3085716, “Hytramycins V and I, anti-Mycobacterium tuberculosis hexapeptides from a Streptomyces hygroscopicus strain” (J Nat Prod, 2013)
